In this data set the test system is CCRIS mutagenicity, Ames/micronucleus/aberration tests. Kind of data set: CCRIS mutagenicity studies.
Where [1] appears, read: Test System: AMES SALMONELLA TYPHIMURIUM, Strain/Indicator: TA100, Metabolic Activation: NONE, Method: PREINCUBATION

Active and inactive are the calls of the source. The rule behind the calls is not given here.

In the case of `Oc1cc(Cl)c(Cl)c(Cl)c1`, the mutagenic call is “inactive; negative; authors describe results as equivocal” (End Point: IN VITRO CHROMOSOMAL ABERRATIONS, Test System: CHINESE HAMSTER LUNG CELLS (CHL), Metabolic Activation: RAT, LIVER, S-9, KC-400); “inactive; negative” (End Point: IN VITRO CHROMOSOMAL ABERRATIONS, Test System: CHINESE HAMSTER OVARY CELLS (CHO), Metabolic Activation: NONE); “inactive; negative” (End Point: IN VITRO CHROMOSOMAL ABERRATIONS, Test System: CHINESE HAMSTER OVARY CELLS (CHO), Metabolic Activation: RAT, LIVER, S-9, AROCLOR 1254); “inactive; negative” (Test System: AMES SALMONELLA TYPHIMURIUM, Strain/Indicator: TA97, Metabolic Activation: HAMSTER, LIVER, S-9, AROCLOR 1254 (10%), Method: PREINCUBATION); “inactive; negative” (Test System: AMES SALMONELLA TYPHIMURIUM, Strain/Indicator: TA97, Metabolic Activation: HAMSTER, LIVER, S-9, AROCLOR 1254 (30%), Method: PREINCUBATION); “inactive; negative” (Test System: AMES SALMONELLA TYPHIMURIUM, Strain/Indicator: TA97, Metabolic Activation: NONE, Method: PREINCUBATION). Moreover, the mutagenic call (Test System: AMES SALMONELLA TYPHIMURIUM, Strain/Indicator: TA97, Metabolic Activation: RAT, LIVER, S-9, AROCLOR 1254 (10%), Method: PREINCUBATION) was “inactive; negative”; the mutagenic call (Test System: AMES SALMONELLA TYPHIMURIUM, Strain/Indicator: TA97, Metabolic Activation: RAT, LIVER, S-9, AROCLOR 1254 (30%), Method: PREINCUBATION) was “inactive; negative”; the mutagenic call (Test System: AMES SALMONELLA TYPHIMURIUM, Strain/Indicator: TA98, Metabolic Activation: HAMSTER, LIVER, S-9, AROCLOR 1254 (10%), Method: PREINCUBATION) was “inactive; negative”; the mutagenic call (Test System: AMES SALMONELLA TYPHIMURIUM, Strain/Indicator: TA98, Metabolic Activation: HAMSTER, LIVER, S-9, AROCLOR 1254 (30%), Method: PREINCUBATION) was “inactive; negative”; the mutagenic call (Test System: AMES SALMONELLA TYPHIMURIUM, Strain/Indicator: TA98, Metabolic Activation: NONE, Method: PREINCUBATION) is “inactive; negative”; the mutagenic call (Test System: AMES SALMONELLA TYPHIMURIUM, Strain/Indicator: TA98, Metabolic Activation: RAT, LIVER, S-9, AROCLOR 1254 (10%), Method: PREINCUBATION) was “inactive; negative”. The mutagenic call is “inactive; negative” (Test System: AMES SALMONELLA TYPHIMURIUM, Strain/Indicator: TA98, Metabolic Activation: RAT, LIVER, S-9, AROCLOR 1254 (30%), Method: PREINCUBATION); “inactive; negative” (Test System: AMES SALMONELLA TYPHIMURIUM, Strain/Indicator: TA100, Metabolic Activation: HAMSTER, LIVER, S-9, AROCLOR 1254 (10%), Method: PREINCUBATION); “inactive; negative” (Test System: AMES SALMONELLA TYPHIMURIUM, Strain/Indicator: TA100, Metabolic Activation: HAMSTER, LIVER, S-9, AROCLOR 1254 (30%), Method: PREINCUBATION); “inactive; negative” under setting [1]; “inactive; negative” (Test System: AMES SALMONELLA TYPHIMURIUM, Strain/Indicator: TA100, Metabolic Activation: RAT, LIVER, S-9, AROCLOR 1254 (10%), Method: PREINCUBATION); “inactive; negative” (Test System: AMES SALMONELLA TYPHIMURIUM, Strain/Indicator: TA100, Metabolic Activation: RAT, LIVER, S-9, AROCLOR 1254 (30%), Method: PREINCUBATION). Also, the mutagenic call runs as follows: (Test System: AMES SALMONELLA TYPHIMURIUM, Strain/Indicator: TA1535, Metabolic Activation: HAMSTER, LIVER, S-9, AROCLOR 1254 (10%), Method: PREINCUBATION) “inactive; negative”; (Test System: AMES SALMONELLA TYPHIMURIUM, Strain/Indicator: TA1535, Metabolic Activation: HAMSTER, LIVER, S-9, AROCLOR 1254 (30%), Method: PREINCUBATION) “inactive; negative”; (Test System: AMES SALMONELLA TYPHIMURIUM, Strain/Indicator: TA1535, Metabolic Activation: NONE, Method: PREINCUBATION) “inactive; negative”; (Test System: AMES SALMONELLA TYPHIMURIUM, Strain/Indicator: TA1535, Metabolic Activation: RAT, LIVER, S-9, AROCLOR 1254 (10%), Method: PREINCUBATION) “inactive; negative”; (Test System: AMES SALMONELLA TYPHIMURIUM, Strain/Indicator: TA1535, Metabolic Activation: RAT, LIVER, S-9, AROCLOR 1254 (30%), Method: PREINCUBATION) “inactive; negative”; (Test System: AMES SALMONELLA TYPHIMURIUM, Strain/Indicator: TA1537, Metabolic Activation: HAMSTER, LIVER, S-9, AROCLOR 1254 (30%), Method: PREINCUBATION) “inactive; negative”. Also, the mutagenic call is “inactive; negative” (Test System: AMES SALMONELLA TYPHIMURIUM, Strain/Indicator: TA1537, Metabolic Activation: NONE, Method: PREINCUBATION) and “inactive; negative” (Test System: AMES SALMONELLA TYPHIMURIUM, Strain/Indicator: TA1537, Metabolic Activation: RAT, LIVER, S-9, AROCLOR 1254 (30%), Method: PREINCUBATION).
In the case of `c1ccc([C@H]2N[C@@H]2c2ccccc2)cc1`, the mutagenic call was “inactive; negative” (Test System: AMES SALMONELLA TYPHIMURIUM, Strain/Indicator: TA98, Metabolic Activation: NONE, Method: STANDARD PLATE); “active; positive” (Test System: AMES SALMONELLA TYPHIMURIUM, Strain/Indicator: TA100, Metabolic Activation: NONE, Method: STANDARD PLATE); “inactive; negative” (Test System: AMES SALMONELLA TYPHIMURIUM, Strain/Indicator: TA1537, Metabolic Activation: NONE, Method: STANDARD PLATE).
Regarding `Clc1c2ccccc2cc2c1ccc1ccccc12`, the mutagenic call is “active; positive” (Test System: AMES SALMONELLA TYPHIMURIUM, Strain/Indicator: TA98, Metabolic Activation: RAT, LIVER, S-9, AROCLOR 1254, Method: STANDARD PLATE); “active; positive” (Test System: AMES SALMONELLA TYPHIMURIUM, Strain/Indicator: TA100, Metabolic Activation: RAT, LIVER, S-9, AROCLOR 1254, Method: STANDARD PLATE); “active; positive” (Test System: AMES SALMONELLA TYPHIMURIUM, Strain/Indicator: TA100, Metabolic Activation: RAT, LIVER, S-9, PCB, Method: STANDARD PLATE).
In the case of `CCC(CC)[N+](=O)[O-]`, the mutagenic call under setting [1] was “inactive; negative”; the mutagenic call (Test System: AMES SALMONELLA TYPHIMURIUM, Strain/Indicator: TA100, Metabolic Activation: RAT, LIVER, S-9, AROCLOR, Method: PREINCUBATION) is “inactive; negative”; the mutagenic call (Test System: AMES SALMONELLA TYPHIMURIUM, Strain/Indicator: TA102, Metabolic Activation: NONE, Method: PREINCUBATION) was “inactive; negative”; the mutagenic call (Test System: AMES SALMONELLA TYPHIMURIUM, Strain/Indicator: TA102, Metabolic Activation: RAT, LIVER, S-9, AROCLOR, Method: PREINCUBATION) was “inactive; negative”; the mutagenic call (Test System: UDS RAT HEPATOCYTES, Strain/Indicator: THY INCORP, Metabolic Activation: NONE) was “active; positive”.

The values above are taken from PubChem BioAssay AID1259407 (Chemical Carcinogenesis Research Information System (CCRIS), 2018).
